From patent publication US20250051260A1, “METHOD FOR PREPARING 4-NITRO-2-(TRIFLUOROMETHYL)ACETOPHENONE AND APPLICATION THEREOF” (MAXUNITECH INC., priority 2022, published 2025)

What was measured:
Test in all cases: Petri dish test for herbicide bioactivity (NY/T 1155.1-2006)
Format in all cases: in vivo
Conditions in all cases: 7 days after treatment
[1] = system: Solanum nigrum L.
From the text: (§1) Test standard:NY/T 1155.1-2006 Pesticides guidelines for laboratory bioactivity tests. Part 1:Petri dish test for herbicide bioactivity
(§2) Targets: Echinochloa crusgalli (L.) Beauv, Panicum acroanthum Steud., Solanum nigrum L., Chenopodium album L.
(§3) Test agent:ethyl 2-(4-nitro-2-trifluoromethylphenyl)-2-cyanopropanoate prepared in Example 1
(§4) The test agent was weighed and dissolved in DMF to obtain a mother liquor. different amounts of mother liquor were weighed and diluted into water to prepare different doses of the test agent.
(§5) Test method:Petri dish test
(§6) 1 test agent, 1 CK (clean water control), 4 targets, and 2 replicate tests per treatment were required. Test method includes the following steps:putting two filter papers on a Petri dish with a diameter of 9 cm; adding 8 mL of the prepared test agent of different concentrations; putting 10 uniform weed seeds; and then placing in an incubator (30° C./25° C., light for 12 h/for dark 12 h). After treatment, the growth state of the test target was regularly observed, the comprehensive growth inhibition rate of each agent was visually investigated with CK about 7 days after the treatment, and the number of seedlings, stem length and root length of plants were measured, and the mergence rate, stem length, and root length and inhibition rate were calculated compared with CK.

[2] = system: Echinochloa crusgalli (L.) Beauv
From the text: as §1, §2, §3, §4, §5, §6

[3] = system: Chenopodium album L.
From the text: as §1, §2, §3, §4, §5, §6

[4] = system: Panicum acroanthum Steud.
From the text: as §1, §2, §3, §4, §5, §6

## CCOC(=O)C(C)(C#N)c1ccc([N+](=O)[O-])cc1C(F)(F)F (stereo not drawn) [ethyl 2-(4-nitro-2-trifluoromethylphenyl)-2-cyanopropanoate]
[1]; agent concentration 500
  Emergence rate, inhibition rate: 100.0%
  Root length, inhibition rate: 100.0%
  Stem length, inhibition rate: 100.0%
[1]; agent concentration 1000
  Emergence rate, inhibition rate: 100.0%
  Root length, inhibition rate: 100.0%
  Stem length, inhibition rate: 100.0%
[2]; agent concentration 500
  Emergence rate, inhibition rate: 100.0%
  Root length, inhibition rate: 100.0%
  Stem length, inhibition rate: 100.0%
[2]; agent concentration 1000
  Emergence rate, inhibition rate: 100.0%
  Root length, inhibition rate: 100.0%
  Stem length, inhibition rate: 100.0%
[3]; agent concentration 100
  Emergence rate, inhibition rate: 63.6%
  Root length, inhibition rate: 100.0%
  Stem length, inhibition rate: 70.4%
[3]; agent concentration 500
  Emergence rate, inhibition rate: 100.0%
  Root length, inhibition rate: 100.0%
  Stem length, inhibition rate: 100.0%
[3]; agent concentration 1000
  Emergence rate, inhibition rate: 100.0%
  Root length, inhibition rate: 100.0%
  Stem length, inhibition rate: 100.0%
[4]; agent concentration 500
  Emergence rate, inhibition rate: 100.0%
  Root length, inhibition rate: 100.0%
  Stem length, inhibition rate: 100.0%
[4]; agent concentration 1000
  Emergence rate, inhibition rate: 100.0%
  Root length, inhibition rate: 100.0%
  Stem length, inhibition rate: 100.0%
